Patent US11053204B2, “Pyrimidinyloxy benzene derivatives as herbicides” (FMC Corporation, priority 2015, dated 2021)

Experiments:
Type in all cases: in vivo
[1] = test system: chickweed (common chickweed, Stellaria media); assay: Test C postemergence, plant response rating; conditions: for Chickweed plant response rating: scale 0 to 100 (0 no effect, 100 complete control)
Summary of the method: (§1)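 Greenhouse plants rated visually against untreated controls 13–15 d after treatment, scale 0 = no effect to 100 = complete control. Postemergence sprays went onto potted plants 2–18 cm tall (1–4 leaves); preemergence sprays onto soil freshly sown in loam–sand or silt loam, chemicals formulated in non-phytotoxic solvent with surfactant.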

corn (Zea mays) = assay: Test C postemergence, plant response rating; conditions: for Corn plant response rating: scale 0 to 100 (0 no effect, 100 complete control)
Summary of the method: as §1

[2] = test system: crabgrass, large (large crabgrass, Digitaria sanguinalis); assay: Test C postemergence, plant response rating; conditions: for Crabgrass, Large plant response rating: scale 0 to 100 (0 no effect, 100 complete control)
Summary of the method: as §1

[3] = test system: blackgrass (Alopecurus myosuroides); assay: Test C postemergence, plant response rating; conditions: for Plant response rating, Blackgrass: scale 0 to 100; for Blackgrass plant response rating: scale 0 to 100 (0 no effect, 100 complete control)
Summary of the method: as §1

[4] = test system: ryegrass, Italian (Italian ryegrass, Lolium multiflorum); assay: Test C postemergence, plant response rating; conditions: for Ryegrass, Italian plant response rating: scale 0 to 100 (0 no effect, 100 complete control)
Summary of the method: as §1

[5] = test system: lambsquarters (Chenopodium album); assay: Test C postemergence, plant response rating; conditions: for Lambsquarters plant response rating: scale 0 to 100 (0 no effect, 100 complete control)
Summary of the method: as §1

[6] = test system: oat, wild (wild oat Avena fatua); assay: Test C postemergence, plant response rating; conditions: for Oat, Wild plant response rating: scale 0 to 100 (0 no effect, 100 complete control)
Summary of the method: as §1

[7] = test system: galium (catchweed bedstraw, Galium aparine); assay: Test C postemergence, plant response rating; conditions: for Galium plant response rating: scale 0 to 100 (0 no effect, 100 complete control)
Summary of the method: as §1

soybean (Glycine max) = assay: Test C postemergence, plant response rating; conditions: for Soybean plant response rating: scale 0 to 100 (0 no effect, 100 complete control)
Summary of the method: as §1

[8] = test system: foxtail, giant (giant foxtail, Setaria faberii); assay: Test C postemergence, plant response rating; conditions: for Foxtail, Giant plant response rating: scale 0 to 100 (0 no effect, 100 complete control)
Summary of the method: as §1

[9] = test system: nutsedge, yellow (yellow nutsedge, Cyperus esculentus); assay: Test C postemergence, plant response rating; conditions: for Nutsedge, Yellow plant response rating: scale 0 to 100 (0 no effect, 100 complete control)
Summary of the method: as §1

[10] = test system: wheat (winter wheat, Triticum aestivum); assay: Test C postemergence, plant response rating; conditions: for Wheat plant response rating: 125 g ai/ha, scale 0 to 100 (0 no effect, 100 complete control)
Summary of the method: as §1

[11] = test system: barnyardgrass (Echinochloa crus-galli); assay: Test A preemergence, visual injury rating; conditions: 0 to 100 scale (0 no effect, 100 complete control); for Plant response rating, Barnyardgrass: 125 g ai/ha; for Barnyardgrass plant response rating: 500 g ai/ha
Summary of the method: (§2)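 Compounds in non-phytotoxic solvent with surfactant applied as soil spray preemergence, or postemergence to plants 2-10 cm at one- to two-leaf stage, in loam/sand. After approximately 10 days in greenhouse, injury rated visually versus untreated controls, 0 (no effect) to 100 (complete control).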

[12] = test system: ragweed (common ragweed, Ambrosia elatior); assay: Test A preemergence, visual injury rating; conditions: 0 to 100 scale (0 no effect, 100 complete control); for Plant response rating, Ragweed: 125 g ai/ha; for Ragweed plant response rating: 500 g ai/ha
Summary of the method: as §2

[13] = test system: Italian ryegrass (Lolium multiflorum); assay: Test A preemergence, visual injury rating; conditions: 0 to 100 scale (0 no effect, 100 complete control); for Plant response rating, Ryegrass, Italian: 125 g ai/ha; for Ryegrass, Italian plant response rating: 500 g ai/ha
Summary of the method: as §2

[14] = test system: pigweed (Amaranthus retroflexus); assay: Test A preemergence, visual injury rating; conditions: 0 to 100 scale (0 no effect, 100 complete control); for Plant response rating, Pigweed: 125 g ai/ha; for Pigweed plant response rating: 500 g ai/ha
Summary of the method: as §2

kochia (Kochia scoparia) = assay: Test A preemergence, visual injury rating; conditions: 0 to 100 scale (0 no effect, 100 complete control); for Plant response rating, Kochia: 125 g ai/ha; for Kochia plant response rating: 500 g ai/ha
Summary of the method: as §2

[15] = test system: giant foxtail (Setaria faberii); assay: Test A preemergence, visual injury rating; conditions: 0 to 100 scale (0 no effect, 100 complete control); for Plant response rating, Foxtail, Giant: 125 g ai/ha; for Foxtail, Giant plant response rating: 500 g ai/ha
Summary of the method: as §2

## CCCC(=O)c1c(Oc2ncc(Cl)cn2)cccc1C(F)(F)F [Compound 136]
[1]; 16 g ai/ha, scale of 0 to 100
  Plant response rating, Chickweed: 55
[1]; 31 g ai/ha, scale 0 to 100
  Plant response rating, Chickweed: 65
[1]; 62 g ai/ha
  Chickweed plant response rating: 75
[1]; 125 g ai/ha
  Chickweed plant response rating: 80
Corn (Zea mays); 16 g ai/ha, scale of 0 to 100
  Plant response rating, Corn: 5
Corn (Zea mays); 31 g ai/ha, scale 0 to 100
  Plant response rating, Corn: 10
Corn (Zea mays); 62 g ai/ha
  Corn plant response rating: 20
Corn (Zea mays); 125 g ai/ha
  Corn plant response rating: 20
[2]; 16 g ai/ha, scale of 0 to 100
  Plant response rating, Crabgrass, Large: 5
[2]; 31 g ai/ha, scale 0 to 100
  Plant response rating, Crabgrass, Large: 5
[2]; 62 g ai/ha
  Crabgrass, Large plant response rating: 10
[2]; 125 g ai/ha
  Crabgrass, Large plant response rating: 30
[3]; 16 g ai/ha
  Plant response rating, Blackgrass: 5
[3]; 31 g ai/ha
  Plant response rating, Blackgrass: 10
[3]; 62 g ai/ha
  Blackgrass plant response rating: 10
[3]; 125 g ai/ha
  Blackgrass plant response rating: 15
[4]; 16 g ai/ha, scale of 0 to 100
  Plant response rating, Ryegrass, Italian: 0
[4]; 31 g ai/ha, scale 0 to 100
  Plant response rating, Ryegrass, Italian: 5
[4]; 62 g ai/ha
  Ryegrass, Italian plant response rating: 5
[4]; 125 g ai/ha
  Ryegrass, Italian plant response rating: 10
[5]; 16 g ai/ha, scale of 0 to 100
  Plant response rating, Lambsquarters: 55
[5]; 31 g ai/ha, scale 0 to 100
  Plant response rating, Lambsquarters: 75
[5]; 62 g ai/ha
  Lambsquarters plant response rating: 80
[5]; 125 g ai/ha
  Lambsquarters plant response rating: 80
[6]; 16 g ai/ha, scale of 0 to 100
  Plant response rating, Oat, Wild: 5
[6]; 31 g ai/ha, scale 0 to 100
  Plant response rating, Oat, Wild: 5
[6]; 62 g ai/ha
  Oat, Wild plant response rating: 10
[6]; 125 g ai/ha
  Oat, Wild plant response rating: 10
[7]; 16 g ai/ha, scale of 0 to 100
  Plant response rating, Galium: 50
[7]; 31 g ai/ha, scale 0 to 100
  Plant response rating, Galium: 65
[7]; 62 g ai/ha
  Galium plant response rating: 60
[7]; 125 g ai/ha
  Galium plant response rating: 75
Soybean (Glycine max); 16 g ai/ha, scale of 0 to 100
  Plant response rating, Soybean: 30
Soybean (Glycine max); 31 g ai/ha, scale 0 to 100
  Plant response rating, Soybean: 40
Soybean (Glycine max); 62 g ai/ha
  Soybean plant response rating: 50
Soybean (Glycine max); 125 g ai/ha
  Soybean plant response rating: 40
[8]; 16 g ai/ha, scale of 0 to 100
  Plant response rating, Foxtail, Giant: 10
[8]; 31 g ai/ha, scale 0 to 100
  Plant response rating, Foxtail, Giant: 20
[8]; 62 g ai/ha
  Foxtail, Giant plant response rating: 10
[8]; 125 g ai/ha
  Foxtail, Giant plant response rating: 25
[9]; 16 g ai/ha, scale of 0 to 100
  Plant response rating, Nutsedge, Yellow: 0
[9]; 31 g ai/ha, scale 0 to 100
  Plant response rating, Nutsedge, Yellow: 0
[9]; 62 g ai/ha
  Nutsedge, Yellow plant response rating: 0
[9]; 125 g ai/ha
  Nutsedge, Yellow plant response rating: 5
[10]; 16 g ai/ha, scale of 0 to 100
  Plant response rating, Wheat: 0
[10]; 31 g ai/ha, scale 0 to 100
  Plant response rating, Wheat: 5
[10]
  Wheat plant response rating: 5
[11]
  Plant response rating, Barnyardgrass: 100
  Barnyardgrass plant response rating: 100
[12]
  Plant response rating, Ragweed: 80
  Ragweed plant response rating: 80
[13]
  Plant response rating, Ryegrass, Italian: 20
  Ryegrass, Italian plant response rating: 100
[14]
  Plant response rating, Pigweed: 100
  Pigweed plant response rating: 100
Kochia (Kochia scoparia)
  Plant response rating, Kochia: 100
  Kochia plant response rating: 100
[15]
  Plant response rating, Foxtail, Giant: 100
  Foxtail, Giant plant response rating: 100

## CCCCC(=O)c1c(Oc2ncc(Cl)cn2)cccc1C(F)(F)F [Compound 130]
[1]; 16 g ai/ha, scale of 0 to 100
  Plant response rating, Chickweed: 75
[1]; 31 g ai/ha, scale 0 to 100
  Plant response rating, Chickweed: 75
[1]; 62 g ai/ha
  Chickweed plant response rating: 80
[1]; 125 g ai/ha
  Chickweed plant response rating: 90
Corn (Zea mays); 16 g ai/ha, scale of 0 to 100
  Plant response rating, Corn: 10
Corn (Zea mays); 31 g ai/ha, scale 0 to 100
  Plant response rating, Corn: 20
Corn (Zea mays); 62 g ai/ha
  Corn plant response rating: 15
Corn (Zea mays); 125 g ai/ha
  Corn plant response rating: 20
[2]; 16 g ai/ha, scale of 0 to 100
  Plant response rating, Crabgrass, Large: 5
[2]; 31 g ai/ha, scale 0 to 100
  Plant response rating, Crabgrass, Large: 10
[2]; 62 g ai/ha
  Crabgrass, Large plant response rating: 10
[2]; 125 g ai/ha
  Crabgrass, Large plant response rating: 20
[3]; 16 g ai/ha
  Plant response rating, Blackgrass: 5
[3]; 31 g ai/ha
  Plant response rating, Blackgrass: 5
[3]; 62 g ai/ha
  Blackgrass plant response rating: 20
[3]; 125 g ai/ha
  Blackgrass plant response rating: 30
[4]; 16 g ai/ha, scale of 0 to 100
  Plant response rating, Ryegrass, Italian: 5
[4]; 31 g ai/ha, scale 0 to 100
  Plant response rating, Ryegrass, Italian: 10
[4]; 62 g ai/ha
  Ryegrass, Italian plant response rating: 10
[4]; 125 g ai/ha
  Ryegrass, Italian plant response rating: 15
[5]; 16 g ai/ha, scale of 0 to 100
  Plant response rating, Lambsquarters: 75
[5]; 31 g ai/ha, scale 0 to 100
  Plant response rating, Lambsquarters: 90
[5]; 62 g ai/ha
  Lambsquarters plant response rating: 85
[5]; 125 g ai/ha
  Lambsquarters plant response rating: 95
[6]; 16 g ai/ha, scale of 0 to 100
  Plant response rating, Oat, Wild: 5
[6]; 31 g ai/ha, scale 0 to 100
  Plant response rating, Oat, Wild: 10
[6]; 62 g ai/ha
  Oat, Wild plant response rating: 15
[6]; 125 g ai/ha
  Oat, Wild plant response rating: 15
[7]; 16 g ai/ha, scale of 0 to 100
  Plant response rating, Galium: 75
[7]; 31 g ai/ha, scale 0 to 100
  Plant response rating, Galium: 80
[7]; 62 g ai/ha
  Galium plant response rating: 85
[7]; 125 g ai/ha
  Galium plant response rating: 80
Soybean (Glycine max); 16 g ai/ha, scale of 0 to 100
  Plant response rating, Soybean: 40
Soybean (Glycine max); 31 g ai/ha, scale 0 to 100
  Plant response rating, Soybean: 55
Soybean (Glycine max); 62 g ai/ha
  Soybean plant response rating: 75
Soybean (Glycine max); 125 g ai/ha
  Soybean plant response rating: 95
[8]; 16 g ai/ha, scale of 0 to 100
  Plant response rating, Foxtail, Giant: 10
[8]; 31 g ai/ha, scale 0 to 100
  Plant response rating, Foxtail, Giant: 10
[8]; 62 g ai/ha
  Foxtail, Giant plant response rating: 10
[8]; 125 g ai/ha
  Foxtail, Giant plant response rating: 30
[9]; 16 g ai/ha, scale of 0 to 100
  Plant response rating, Nutsedge, Yellow: 0
[9]; 31 g ai/ha, scale 0 to 100
  Plant response rating, Nutsedge, Yellow: 0
[9]; 62 g ai/ha
  Nutsedge, Yellow plant response rating: 5
[9]; 125 g ai/ha
  Nutsedge, Yellow plant response rating: 5
[10]; 16 g ai/ha, scale of 0 to 100
  Plant response rating, Wheat: 10
[10]; 31 g ai/ha, scale 0 to 100
  Plant response rating, Wheat: 5
[10]
  Wheat plant response rating: 30
[11]
  Plant response rating, Barnyardgrass: 100
  Barnyardgrass plant response rating: 100
[12]
  Plant response rating, Ragweed: 20
  Ragweed plant response rating: 90
[13]
  Plant response rating, Ryegrass, Italian: 80
  Ryegrass, Italian plant response rating: 100
[14]
  Plant response rating, Pigweed: 100
  Pigweed plant response rating: 100
Kochia (Kochia scoparia)
  Plant response rating, Kochia: 100
  Kochia plant response rating: 100
[15]
  Plant response rating, Foxtail, Giant: 100
  Foxtail, Giant plant response rating: 100
